Experimental data published in US20250002507A1, “7,8-DIHYDRO-5H-1,6-NAPHTHYRIDINE DERIVATIVES AS POSITIVE ALLOSTERIC MODULATORS OF THE MUSCARINIC ACETYLCHOLINE RECEPTOR M4 FOR TREATING NEUROLOGICAL AND PSYCHIATRIC DISORDERS” (Vanderbilt University, priority 2021, published 2025).

Molecular target: T1, Human M4 (Homo sapiens, UniProt P08173)
T1 construct: expressed in transfected cells
T1 sequence (P08173 1-479): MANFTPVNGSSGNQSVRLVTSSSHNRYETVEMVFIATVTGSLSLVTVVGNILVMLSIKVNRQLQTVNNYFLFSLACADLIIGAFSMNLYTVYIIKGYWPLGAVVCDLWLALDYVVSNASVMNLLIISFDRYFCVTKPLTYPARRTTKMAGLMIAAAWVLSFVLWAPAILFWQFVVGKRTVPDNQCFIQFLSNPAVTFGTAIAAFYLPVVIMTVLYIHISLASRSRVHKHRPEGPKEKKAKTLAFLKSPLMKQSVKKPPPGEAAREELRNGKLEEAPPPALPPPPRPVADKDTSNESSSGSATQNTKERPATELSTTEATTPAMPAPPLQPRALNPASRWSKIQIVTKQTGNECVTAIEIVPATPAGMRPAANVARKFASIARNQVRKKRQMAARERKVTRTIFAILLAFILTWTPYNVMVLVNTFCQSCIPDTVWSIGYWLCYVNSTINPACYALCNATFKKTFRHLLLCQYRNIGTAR
Assay: mAChR M4 cell-based functional assay (calcium flux, potentiation of EC20 acetylcholine response), hM4-Gqi5 CHO-K1 cells
Settings: Table 3; for Emax at 30 µM: CHO-K1, Human M4, % ACh maximum at 30 μM, read-out: Emax (% ACh maximum at 30 μM); for EC50: potentiation of EC20 acetylcholine response, calcium flux, CHO-K1 cells, read-out: Human M4 EC50
Method in brief: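 CHO-K1 cells stably expressing human M4 with chimeric Gqi5, loaded with Fluo-4 AM 50 min at 37 °C; calcium flux read by FDSS. 11-point 1:3 compound curves added, then EC20 acetylcholine at 144 s; potentiation of the EC20 response fitted by four-parameter logistic to give EC50 and Emax.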

Row | Emax at 30 µM | EC50 | Structure (SMILES)
1 | 65% | 3280 nM | Cc1c(N2CCc3ncc(N4CCC5(CC4)COC5)cc3C2)nn2c(C(F)(F)F)nnc2c1C [Compound 274, 7-(6-(7,8-dimethyl-3-(trifluoromethyl)-[1,2,4]triazolo[4,3-b]pyridazin-6-yl)-5,6,7,8-tetrahydro-1,6-naphthyridin-3-yl)-2-oxa-7-azaspiro[3.5]nonane]
2 | 74% | 933 nM | Cc1c(N2CCc3ncc(N4CCCC4)cc3C2)nn2c(C(F)(F)F)nnc2c1C [Compound 275, 6-(7,8-dimethyl-3-(trifluoromethyl)-[1,2,4]triazolo[4,3-b]pyridazin-6-yl)-3-(pyrrolidin-1-yl)-5,6,7,8-tetrahydro-1,6-naphthyridine]
3 | 65% | 1970 nM | Cc1c(N2CCc3ncc(N4CCN(C)CC4)cc3C2)nn2c(C(F)(F)F)nnc2c1C [Compound 276, 6-(7,8-dimethyl-3-(trifluoromethyl)-[1,2,4]triazolo[4,3-b]pyridazin-6-yl)-3-(4-methylpiperazin-1-yl)-5,6,7,8-tetrahydro-1,6-naphthyridine]
4 | 85% | 392 nM | Cc1c(N2CCc3ncc(Oc4ccccc4F)cc3C2)nn2c(C(F)(F)F)nnc2c1C [Compound 277, 6-(7,8-dimethyl-3-(trifluoromethyl)-[1,2,4]triazolo[4,3-b]pyridazin-6-yl)-3-(2-fluorophenoxy)-5,6,7,8-tetrahydro-1,6-naphthyridine]
5 | 84% | 832 nM | Cc1c(N2CCc3ncc(Oc4cccc(F)c4)cc3C2)nn2c(C(F)(F)F)nnc2c1C [Compound 278, 6-(7,8-dimethyl-3-(trifluoromethyl)-[1,2,4]triazolo[4,3-b]pyridazin-6-yl)-3-(3-fluorophenoxy)-5,6,7,8-tetrahydro-1,6-naphthyridine]
6 | 86% | 1010 nM | Cc1c(N2CCc3ncc(NC4CCOC4)cc3C2)nn2c(C(F)(F)F)nnc2c1C (centres unmarked) [Compound 279, 6-(7,8-dimethyl-3-(trifluoromethyl)-[1,2,4]triazolo[4,3-b]pyridazin-6-yl)-N-(tetrahydrofuran-3-yl)-5,6,7,8-tetrahydro-1,6-naphthyridin-3-amine]
7 | 85% | 698 nM | Cc1c(N2CCc3ncc(N4CCC(F)(F)CC4)cc3C2)nn2c(C(F)(F)F)nnc2c1C [Compound 280, 3-(4,4-difluoropiperidin-1-yl)-6-(7,8-dimethyl-3-(trifluoromethyl)-[1,2,4]triazolo[4,3-b]pyridazin-6-yl)-5,6,7,8-tetrahydro-1,6-naphthyridine]
8 | 76% | 738 nM | Cc1c(N2CCc3ncc(N4CCCCC4)cc3C2)nn2c(C(F)(F)F)nnc2c1C [Compound 281, 6-(7,8-dimethyl-3-(trifluoromethyl)-[1,2,4]triazolo[4,3-b]pyridazin-6-yl)-3-(piperidin-1-yl)-5,6,7,8-tetrahydro-1,6-naphthyridine]
9 | 87% | 64 nM | Cc1c(N2CCc3ncc(N4CCOc5ncccc54)cc3C2)nn2c(C(F)(F)F)nnc2c1C [Compound 282, 1-(6-(7,8-dimethyl-3-(trifluoromethyl)-[1,2,4]triazolo[4,3-b]pyridazin-6-yl)-5,6,7,8-tetrahydro-1,6-naphthyridin-3-yl)-2,3-dihydro-1H-pyrido[2,3-b][1,4]oxazine]
10 | 89% | 2170 nM | Cc1c(N2CCc3nnc(Cl)cc3C2)nn2c(C(F)(F)F)nnc2c1C [Compound 283, 3-chloro-6-(7,8-dimethyl-3-(trifluoromethyl)-[1,2,4]triazolo[4,3-b]pyridazin-6-yl)-5,6,7,8-tetrahydropyrido[4,3-c]pyridazine]
11 | 53% | 545 nM | Cc1c(N2CCc3ncc(N4CCCn5nccc54)cc3C2)nn2c(Cl)nnc2c1C [Compound 284, 6-(3-chloro-7,8-dimethyl-[1,2,4]triazolo[4,3-b]pyridazin-6-yl)-3-(6,7-dihydropyrazolo[1,5-a]pyrimidin-4(5H)-yl)-5,6,7,8-tetrahydro-1,6-naphthyridine]
12 | 88% | 1060 nM | Cc1c(N2CCc3ncc(C(F)c4ccccc4)cc3C2)nn2c(C(F)(F)F)nnc2c1C (centres unmarked) [Compound 285, 6-(7,8-dimethyl-3-(trifluoromethyl)-[1,2,4]triazolo[4,3-b]pyridazin-6-yl)-3-(fluoro(phenyl)methyl)-5,6,7,8-tetrahydro-1,6-naphthyridine]
13 | 94% | 102 nM | Cc1c(N2CCc3ncc(N4CCOC(C)(C)C4)cc3C2)nn2c(C(F)(F)F)nnc2c1C [Compound 286, 4-(6-(7,8-dimethyl-3-(trifluoromethyl)-[1,2,4]triazolo[4,3-b]pyridazin-6-yl)-5,6,7,8-tetrahydro-1,6-naphthyridin-3-yl)-2,2-dimethylmorpholine]
14 | 82% | 2360 nM | COC1CCN(c2cnc3c(c2)CN(c2nn4c(C(F)(F)F)nnc4cc2C)CC3)C1 (centres unmarked) [Compound 287, 3-(3-methoxypyrrolidin-1-yl)-6-(7-methyl-3-(trifluoromethyl)-[1,2,4]triazolo[4,3-b]pyridazin-6-yl)-5,6,7,8-tetrahydro-1,6-naphthyridine]
15 | 77% | 940 nM | COC1CCN(c2cnc3c(c2)CN(c2nn4c(C(F)(F)F)nnc4c(C)c2C)CC3)C1 (centres unmarked) [Compound 288, 6-(7,8-dimethyl-3-(trifluoromethyl)-[1,2,4]triazolo[4,3-b]pyridazin-6-yl)-3-(3-methoxypyrrolidin-1-yl)-5,6,7,8-tetrahydro-1,6-naphthyridine]
16 | 102% | 265 nM | Cc1ccc(Oc2cnc3c(c2)CN(c2nn4cnnc4c(C)c2C)CC3)c(F)c1 [Compound 289, 6-(7,8-dimethyl-[1,2,4]triazolo[4,3-b]pyridazin-6-yl)-3-(2-fluoro-4-methylphenoxy)-5,6,7,8-tetrahydro-1,6-naphthyridine]
17 | 69% | 1680 nM | Cc1ccc(Oc2cnc3c(c2)CN(c2nn4c(C(F)(F)F)nnc4cc2C)CC3)c(F)c1 [Compound 290, 3-(2-fluoro-4-methylphenoxy)-6-(7-methyl-3-(trifluoromethyl)-[1,2,4]triazolo[4,3-b]pyridazin-6-yl)-5,6,7,8-tetrahydro-1,6-naphthyridine]
18 | 67% | 1880 nM | Cc1ccc(Oc2cnc3c(c2)CN(c2nn4c(C(F)(F)F)nnc4c(C)c2C)CC3)c(F)c1 [Compound 291, 6-(7,8-dimethyl-3-(trifluoromethyl)-[1,2,4]triazolo[4,3-b]pyridazin-6-yl)-3-(2-fluoro-4-methylphenoxy)-5,6,7,8-tetrahydro-1,6-naphthyridine]
19 | 106% | 556 nM | COC1CCCN(c2cnc3c(c2)CN(c2nn4c(C(F)(F)F)nnc4c(C)c2C)CC3)C1 (centres unmarked) [Compound 292, 6-(7,8-dimethyl-3-(trifluoromethyl)-[1,2,4]triazolo[4,3-b]pyridazin-6-yl)-3-(3-methoxypiperidin-1-yl)-5,6,7,8-tetrahydro-1,6-naphthyridine]
20 | 96% | 155 nM | Cc1cc2nncn2nc1N1CCc2ncc(Oc3ccc(F)cc3F)cc2C1 [Compound 293, 3-(2,4-difluorophenoxy)-6-(7-methyl-[1,2,4]triazolo[4,3-b]pyridazin-6-yl)-5,6,7,8-tetrahydro-1,6-naphthyridine]
21 | 103% | 101 nM | Cc1cc2nncn2nc1N1CCc2ncc(Oc3cccc(F)c3F)cc2C1 [Compound 294, 3-(2,3-difluorophenoxy)-6-(7-methyl-[1,2,4]triazolo[4,3-b]pyridazin-6-yl)-5,6,7,8-tetrahydro-1,6-naphthyridine]
22 | 109% | 41 nM | Cc1cc2nncn2nc1N1CCc2ncc(Oc3cc(F)ccc3F)cc2C1 [Compound 295, 3-(2,5-difluorophenoxy)-6-(7-methyl-[1,2,4]triazolo[4,3-b]pyridazin-6-yl)-5,6,7,8-tetrahydro-1,6-naphthyridine]
23 | 96% | 1120 nM | Cc1cc2nnc(C(F)(F)F)n2nc1N1CCc2ncc(Oc3ccc(F)cc3F)cc2C1 [Compound 296, 3-(2,4-difluorophenoxy)-6-(7-methyl-3-(trifluoromethyl)-[1,2,4]triazolo[4,3-b]pyridazin-6-yl)-5,6,7,8-tetrahydro-1,6-naphthyridine]
24 | 100% | 1100 nM | Cc1cc2nnc(C(F)(F)F)n2nc1N1CCc2ncc(Oc3cccc(F)c3F)cc2C1 [Compound 297, 3-(2,3-difluorophenoxy)-6-(7-methyl-3-(trifluoromethyl)-[1,2,4]triazolo[4,3-b]pyridazin-6-yl)-5,6,7,8-tetrahydro-1,6-naphthyridine]
25 | 109% | 379 nM | Cc1cc2nnc(C(F)(F)F)n2nc1N1CCc2ncc(Oc3cc(F)ccc3F)cc2C1 [Compound 298, 3-(2,5-difluorophenoxy)-6-(7-methyl-3-(trifluoromethyl)-[1,2,4]triazolo[4,3-b]pyridazin-6-yl)-5,6,7,8-tetrahydro-1,6-naphthyridine]
